# Experimental data from paper PMC5487684, “Safety, Pharmacokinetics, and Antiviral Activity of a Novel HIV Antiviral, ABX464, in Treatment-Naive HIV-Infected Subjects in a Phase 2 Randomized, Controlled Study” (Antimicrobial Agents and Chemotherapy, 2017).
# Entries after “also recorded” stand apart in the source; their conditions may differ.
# How the values were obtained:
# HIV [1] = test: HIV viral load (HIV-1 RNA copies per milliliter) in treatment-naive HIV-infected patients; assay type: in vivo
# Experimental: Safety assessments and laboratory tests were carried out according to the schedules described in Table S4 for groups dosed every day, every 3 days, and 3 times a day. Follow-up visits were scheduled for 7 days after the last dose and subsequently once every week in order to assess the elimination of the main ABX464 metabolite and to assess the viral load. Follow-up visits were terminated when the virus load was within 0.5 log of the baseline value or after 3 follow-up visits, whichever came first. Prior to the statistical analyses, AEs were coded using the Medical Dictionary for Regulatory Activities (MedDRA dictionary; last available version) in order to be tabulated by system organ class (SOC) and preferred term (PT). The AEs were analyzed according to the treatment emergence phase from the first study drug administration on day 1 up to 48 h after the last study drug administration. The number and percentage of subjects with at least one TEAE were tabulated by SOC and PT for each group and dose. The number of occurrences of TEAEs was also analyzed in the same way by SOC and PT for each group and dose, by grade of severity for each group and dose, and by level of causality to the study drug for each group and dose.
# (§1) Plasma samples were analyzed for ABX464 and ABX464-NGlc using validated bioanalytical methods by Atlanbio (Saint Nazaire, France) according to good laboratory practices. Pharmacokinetic parameters were calculated by noncompartmental analysis (NCA), using Phoenix WinNonlin software (Pharsight Corporation) running on a personal computer. On day 1, the following PK parameters were generated: Cmax, the time to Cmax (Tmax), lag time (tlag), elimination rate constant (kel), area under the concentration-time curve (AUC) from time zero to time t (AUC0–t), AUC from time zero to infinity (AUC0–∞), apparent clearance (CL/F), and apparent volume of distribution (V/F). On the other days of PK assessment, only Cmax, Tmax, tlag, kel, and AUC0–t were generated. The secondary analysis concerned pharmacodynamic (PD) activity, as expressed by CD4 and CD8 levels and viral load across time. The HIV viral load was analyzed in the prequalified individual local study center laboratories. CD4 and CD8 cell counts were also determined in the local study center laboratories. With respect to the viral load, changes in the log-transformed viral load values between 24 h postdose and predose were calculated on each day, and a comparison between each dose level and pooled placebo data was made. Moreover, the rate of success (defined as a decrease in the viral load value of at least 0.5 log) was evaluated for each treatment (including placebo) and compared between treatments.
# No formal sample size determination was done. The aim of the study was to obtain reliable and consistent data and to expose a limited number of subjects to ABX464. To achieve this aim, six subjects per group received ABX464. A mixed model analysis of covariance of the changes in the viral load compared to that at the baseline was conducted on log-transformed values. Baseline parameters and age were covariates, treatment groups were fixed effects, and subjects were random effects.
# CD4 and CD8 cell counts = CD4 and CD8 cell counts in HIV-infected subjects; assay type: in vivo, human
# Experimental: as §1, with “The secondary analysis concerned pharmacodynamic (PD) activity, as expressed by CD4 and CD8 levels and viral load across time.” left out
# [2] = cited from earlier work
# HIV [3] = tested on: HIV; design: method as in PMID 25889234; conditions: cited from earlier work
# HIV replication in PBMCs = tested on: HIV replication in PBMCs; design: method as in PMID 25889234; conditions: in vitro; cited from earlier work
# HIV [4] = tested on: HIV; design: method as in PMID 25889234; conditions: human PBMCs, treatment for at least 24 weeks; cited from earlier work
# healthy subjects = conditions: cited from earlier work
# [5] = Non-infected, single oral 50mg (fasted), N 17
# [6] = Non-infected, single oral 50mg (fasted), N 23
compound,measurement,setting,value
FC(F)(F)Oc1ccc(Nc2ccc3cccc(Cl)c3n2)cc1 [ABX464],Change in log10 no. of RNA copies/ml from that at the baseline,"HIV [1]; Group 6 (100 mg q.d., fasted), subject 804, day 11",−0.52 log10 no. of RNA copies/ml
same,Change in log10 no. of RNA copies/ml from that at the baseline,"HIV [1]; Group 6 (100 mg q.d., fasted), subject 804, day 15",−0.59 log10 no. of RNA copies/ml
same,Change in log10 no. of RNA copies/ml from that at the baseline,"HIV [1]; Group 6 (100 mg q.d., fasted), subject 807, day 11",−0.51 log10 no. of RNA copies/ml
same,Change in log10 no. of RNA copies/ml from that at the baseline,"HIV [1]; Group 6 (100 mg q.d., fasted), subject 807, day 18",−1.44 log10 no. of RNA copies/ml
same,Change in log10 no. of RNA copies/ml from that at the baseline,"HIV [1]; Group 7 (150 mg every 3 days, fed), subject 908, day 16",−0.72 log10 no. of RNA copies/ml
same,Change in log10 no. of RNA copies/ml from that at the baseline,"HIV [1]; Group 7 (150 mg every 3 days, fed), subject 908, day 19",−0.53 log10 no. of RNA copies/ml
same,Change in log10 no. of RNA copies/ml from that at the baseline,"HIV [1]; Group 7 (150 mg every 3 days, fed), subject 908, day 20",−0.59 log10 no. of RNA copies/ml
same,Change in log10 no. of RNA copies/ml from that at the baseline,"HIV [1]; Group 8 (150 mg q.d., fed), subject 1001, day 10",−0.5 log10 no. of RNA copies/ml
same,Change in log10 no. of RNA copies/ml from that at the baseline,"HIV [1]; Group 8 (150 mg q.d., fed), subject 1001, day 11",−0.62 log10 no. of RNA copies/ml
same,Change in log10 no. of RNA copies/ml from that at the baseline,"HIV [1]; Group 8 (150 mg q.d., fed), subject 1001, day 14",−0.72 log10 no. of RNA copies/ml
same,Change in log10 no. of RNA copies/ml from that at the baseline,"HIV [1]; Group 8 (150 mg q.d., fed), subject 1001, day 15",−0.68 log10 no. of RNA copies/ml
same,Change in log10 no. of RNA copies/ml from that at the baseline,"HIV [1]; Group 8 (150 mg q.d., fed), subject 1004, day 10",−0.5 log10 no. of RNA copies/ml
same,Change in log10 no. of RNA copies/ml from that at the baseline,"HIV [1]; Group 8 (150 mg q.d., fed), subject 1004, day 14",−0.51 log10 no. of RNA copies/ml
same,Change in log10 no. of RNA copies/ml from that at the baseline,"HIV [1]; Group 8 (150 mg q.d., fed), subject 1004, day 15",−0.51 log10 no. of RNA copies/ml
same,Change in log10 no. of RNA copies/ml from that at the baseline,"HIV [1]; Group 8 (150 mg q.d., fed), subject 1005, day 7",−0.53 log10 no. of RNA copies/ml
same,Change in log10 no. of RNA copies/ml from that at the baseline,"HIV [1]; Group 8 (150 mg q.d., fed), subject 1005, day 11",−0.52 log10 no. of RNA copies/ml
same,Change in log10 no. of RNA copies/ml from that at the baseline,"HIV [1]; Group 8 (150 mg q.d., fed), subject 1008, day 8",−0.59 log10 no. of RNA copies/ml
same,Change in log10 no. of RNA copies/ml from that at the baseline,"HIV [1]; Group 8 (150 mg q.d., fed), subject 1008, day 10",−0.57 log10 no. of RNA copies/ml
same,Change in log10 no. of RNA copies/ml from that at the baseline,"HIV [1]; Group 8 (150 mg q.d., fed), subject 1008, day 11",−0.56 log10 no. of RNA copies/ml
same,Change in log10 no. of RNA copies/ml from that at the baseline,"HIV [1]; Group 8 (150 mg q.d., fed), subject 1008, day 14",−0.53 log10 no. of RNA copies/ml
same,Mean changes in the viral load vs placebo group,"HIV [1]; any time point over the 14-day study period, all treatment groups",No statistically significant differences
same,Subjects with a decrease of ≥0.5 log10 in HIV RNA load,"HIV [1]; group 1, 25 mg every 3 days, fasted",3 subjects
same,Subjects with a decrease of ≥0.5 log10 in HIV RNA load,"HIV [1]; group 2, 25 mg q.d., fasted",1 subjects
same,Subjects with a decrease of ≥0.5 log10 in HIV RNA load,"HIV [1]; group 4, 50 mg t.i.d., fed",2 subjects
same,Subjects with a decrease of ≥0.5 log10 in HIV RNA load,"HIV [1]; group 5, 75 mg q.d., fed",1 subjects
same,Subjects with a decrease of ≥0.5 log10 in HIV RNA load,"HIV [1]; group 6, 100 mg q.d., fasted",2 subjects
same,Subjects with a decrease of ≥0.5 log10 in HIV RNA load,"HIV [1]; group 7, 150 mg every 3 days, fed",1 subjects
same,Subjects with a decrease of ≥0.5 log10 in HIV RNA load,"HIV [1]; group 8, 150 mg q.d. for 2 weeks, fed (6 treated)",4 subjects
same,CD4 profile,CD4 and CD8 cell counts; each ABX464 dose,no trend associated with product use or dose
same,Mean changes in the CD8 cell counts from baseline,"CD4 and CD8 cell counts; human, in vivo",did not show any particular trend
same,"AUC0-∞, GM",[2]; [5],43.93 ng·h/mL
same,"AUC0-∞, Mean",[2]; [5],51.74 ng·h/mL
same,"t1/2, GM",[2]; [5],49.8 min
same,"t1/2, Mean",[2]; [5],52.8 min
same,"Cmax, GM",[2]; [6],13.70 ng/mL
same,"Cmax, Mean",[2]; [6],17.70 ng/mL
same,"tmax, Mean",[2]; [6],90 min
same,Metabolism in human subjects,"[2]; healthy subjects, single ascending oral dose",rapidly and substantially metabolized into ABX464-N-glucuronide
same,Virus replication in two humanized mouse models of HIV infection,HIV [3],substantially reduced virus replication
same,Mice with an undetectable viral load,"HIV [3]; humanized mice, after 2 to 3 weeks of treatment",30%
same,Virus rebound after termination of therapy,"HIV [3]; vs cART-treated control animals, over 6 weeks after treatment termination",substantially lower virus rebound
same,Antiviral effect on HIV replication in PBMCs,HIV replication in PBMCs,can inhibit HIV replication
same,Development of drug resistance in vitro,HIV [4],no development of resistance-inducing mutations; also recorded: did not induce any drug resistance
same,"Tolerability in healthy volunteers, food effect and repeated dosing study",healthy subjects,good tolerability profile
same,"Tolerability in healthy subjects, first-in-human study","healthy subjects; single ascending oral dose, up to 150 mg",very well tolerated; also recorded: well tolerated
